Measurements published in patent US9517994B2, “Antibacterial agents: phloroglucinol derivatives” (Rutgers, the State University of New Jersey, priority 2012, dated 2016).
pIC50: −log10 of the molar value. ≈ marks a conversion by molar mass, not a printed value.

What was measured:
[1] = target: E. coli RNA polymerase σ70 holoenzyme (Escherichia coli, UniProt P0A8T7+P0A8V2); experiment: Fluorescence-detected assay of inhibition of Escherichia coli RNA polymerase; type: biochemical; details: RiboGreen fluorescence, read-out: IC50 Ec RNAP
Protocol: (§1) Fluorescence-detected RNA polymerase assays with E. coli RNA polymerase were performed by a modification of the procedure of Kuhlman et al., 2004 (Kuhlman, P., Duff, H. & Galant, A. (2004) Anal. Biochem. 324, 183-190). Reaction mixtures contained (20 μl): 0-100 nM test compound, 75 nM E. coli RNA polymerase σ^70 holoenzyme, 20 nM 384 by DNA fragment containing the bacteriophage T4 N25 promoter, 100 μM ATP, 100 μM GTP, 100 μM UTP, 100 μM CTP, 50 mM Tris-HCl, pH 8.0, 100 mM KCl, 10 mM MgCl2, 1 mM DTT, 10 μg/ml bovine serum albumin, and 5.5% glycerol. Reaction components other than DNA and NTPs were pre-incubated for 10 mm at 37° C. Reactions were carried out by addition of DNA and incubation for 5 min at 37° C., followed by addition of NTPs and incubation for 60 min at 37° C. DNA was removed by addition of 1 μl 5 mM CaCl2 and 2 U DNaseI (Ambion, Inc.), followed by incubation for 90 min at 37° C. RNA was quantified by addition of 100 μl RiboGreen RNA Quantitation Reagent (Invitrogen, Inc.; 1:500 dilution in Tris-HCl, pH 8.0, 1 mM EDTA), followed by incubation for 10 min at 25° C., followed by measurement of fluorescence intensity [excitation wavelength=485 nm and emission wavelength=535 nm; QuantaMaster QMI spectrofluorometer (PTI, Inc.)]. IC50 was defined as the concentration of inhibitor resulting in 50% inhibition of RNA polymerase activity.

[2] = target: S. aureus RNA polymerase core enzyme + S. aureus σA (Staphylococcus aureus, UniProt P47768+Q2G0N5); experiment: Fluorescence-detected assay of inhibition of Staphylococcus aureus RNA polymerase; type: biochemical; details: read-out: IC50 Sa RNAP
Protocol: as §1
(§2) Fluorescence-detected RNA polymerase assays with S. aureus RNA polymerase were performed as in Example 17.1, using reaction mixtures containing (20 μl): 0-100 nM test compound, 75 nM S. aureus RNA polymerase core enzyme, 300 nM S. aureus σ^A, 20 nM 384 by DNA fragment containing the bacteriophage T4 N25 promoter, 100 μM ATP, 100 μM GTP, 100 μM UTP, 100 μM CTP, 40 mM Tris-HCl, pH 8.0, 80 mM NaCl, 5 mM MgCl2, 2.5 mM DTT, and 12.7% glycerol. IC50 was defined as the concentration of inhibitor resulting in 50% inhibition of RNA polymerase activity.

H. influenzae 49247 = experiment: MIC, spiral gradient endpoint assay (GC II agar, 5% CO2); details: for MIC: Haemophilus influenzae, 49247, read-out: MIC H. influenzae 49247
[3] = test system: Staphylococcus aureus ATCC 12600; experiment: MIC, spiral gradient endpoint assay; details: ATCC12600, 16 h, read-out: MIC S. aureus 12600
[4] = test system: Bacillus anthracis Vollum 1B; experiment: microbe, parasite or virus in culture; type: cell-based; details: VOLLUM1B, read-out: MIC B. anthracis Vollum-1b
[5] = target: M tuberculosis RNA polymerase core enzyme + M. tuberculosis σA (Mycobacterium tuberculosis, UniProt P9WGY7+P9WGY9); experiment: Fluorescence-detected assay of inhibition of Mycobacterium tuberculosis RNA polymerase; type: biochemical; details: read-out: IC50 Mt RNAP
Protocol: as §1
as §2, with “assays with M tuberculosis RNA polymerase” for “assays with S. aureus RNA polymerase”, “75 nM M tuberculosis RNA polymerase” for “75 nM S. aureus RNA polymerase”, “300 nM M. tuberculosis σ^A, 20” for “300 nM S. aureus σ^A, 20”

[6] = test system: Mycobacterium tuberculosis H37Rv; experiment: MIC, microplate Alamar Blue assay; details: read-out: MIC M. tuberculosis H37Rv
[7] = test system: Haemophilus influenzae ATCC 33391; experiment: MIC, spiral gradient endpoint assay (GC II agar, 5% CO2); details: ATCC33391, read-out: MIC H. influenzae 33391
[8] = test system: Escherichia coli D21f2tolC; experiment: MIC, spiral gradient endpoint assay; details: 16 h, read-out: MIC E. coli D21f2tolC
Burkholderia mallei CHN7 = experiment: microbe, parasite or virus in culture; type: cell-based; details: CHN7, read-out: MIC B. mallei CHN7
[9] = test system: Enterococcus faecalis ATCC 19433; experiment: MIC, spiral gradient endpoint assay; details: ATCC19433, 16 h, read-out: MIC E. faecalis 19433
[10] = test system: Moraxella catarrhalis ATCC 25238; experiment: MIC, spiral gradient endpoint assay (GC II agar, 5% CO2); details: ATCC25238, read-out: MIC M. catarrhalis 25238
[11] = test system: Francisella tularensis SCHU4; experiment: microbe, parasite or virus in culture; type: cell-based; details: SCHU4, read-out: MIC F. tularensis SCHU4

Chain of S. aureus RNA polymerase core enzyme + S. aureus σA (P0A0J0 whole entry): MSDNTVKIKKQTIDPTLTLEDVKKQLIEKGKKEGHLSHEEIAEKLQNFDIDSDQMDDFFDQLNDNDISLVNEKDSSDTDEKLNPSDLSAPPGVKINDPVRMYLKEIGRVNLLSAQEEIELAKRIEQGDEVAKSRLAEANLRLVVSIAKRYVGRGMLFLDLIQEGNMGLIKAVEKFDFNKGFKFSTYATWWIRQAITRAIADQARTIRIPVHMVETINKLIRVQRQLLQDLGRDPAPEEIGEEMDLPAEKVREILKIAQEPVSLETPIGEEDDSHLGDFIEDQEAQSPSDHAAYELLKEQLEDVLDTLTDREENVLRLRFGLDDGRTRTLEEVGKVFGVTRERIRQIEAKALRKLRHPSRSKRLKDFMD
Chain of S. aureus RNA polymerase core enzyme + S. aureus σA (P47768 whole entry): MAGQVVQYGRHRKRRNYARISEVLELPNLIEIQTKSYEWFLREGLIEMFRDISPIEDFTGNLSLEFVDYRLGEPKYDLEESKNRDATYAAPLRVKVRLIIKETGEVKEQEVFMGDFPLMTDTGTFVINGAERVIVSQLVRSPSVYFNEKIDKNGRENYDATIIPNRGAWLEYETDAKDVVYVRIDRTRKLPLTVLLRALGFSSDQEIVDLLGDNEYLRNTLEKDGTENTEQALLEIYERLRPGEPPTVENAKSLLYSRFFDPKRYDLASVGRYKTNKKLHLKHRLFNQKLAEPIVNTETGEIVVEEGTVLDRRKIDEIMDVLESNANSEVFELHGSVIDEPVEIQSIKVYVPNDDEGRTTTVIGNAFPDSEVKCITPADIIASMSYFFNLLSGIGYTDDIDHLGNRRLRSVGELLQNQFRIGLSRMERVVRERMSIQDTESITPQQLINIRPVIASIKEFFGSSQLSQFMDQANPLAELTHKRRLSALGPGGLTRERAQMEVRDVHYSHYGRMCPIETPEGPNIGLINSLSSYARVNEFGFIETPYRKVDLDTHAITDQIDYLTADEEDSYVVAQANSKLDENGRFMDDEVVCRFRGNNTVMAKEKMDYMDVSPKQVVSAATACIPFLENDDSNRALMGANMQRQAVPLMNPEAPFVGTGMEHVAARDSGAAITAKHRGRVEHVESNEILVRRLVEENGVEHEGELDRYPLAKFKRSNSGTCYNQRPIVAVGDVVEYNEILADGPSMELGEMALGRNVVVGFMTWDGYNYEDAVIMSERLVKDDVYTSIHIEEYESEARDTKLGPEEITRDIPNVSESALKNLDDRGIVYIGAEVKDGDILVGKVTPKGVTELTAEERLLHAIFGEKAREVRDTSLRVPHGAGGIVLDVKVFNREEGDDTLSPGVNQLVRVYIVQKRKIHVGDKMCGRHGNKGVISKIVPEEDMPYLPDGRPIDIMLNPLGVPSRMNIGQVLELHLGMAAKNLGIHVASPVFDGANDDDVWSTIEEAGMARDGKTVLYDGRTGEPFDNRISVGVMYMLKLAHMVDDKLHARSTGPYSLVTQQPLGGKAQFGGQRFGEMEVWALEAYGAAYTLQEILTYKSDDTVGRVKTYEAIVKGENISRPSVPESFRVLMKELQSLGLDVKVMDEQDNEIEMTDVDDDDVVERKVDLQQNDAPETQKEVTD
Chain of S. aureus RNA polymerase core enzyme + S. aureus σA (Q2G0N5 whole entry): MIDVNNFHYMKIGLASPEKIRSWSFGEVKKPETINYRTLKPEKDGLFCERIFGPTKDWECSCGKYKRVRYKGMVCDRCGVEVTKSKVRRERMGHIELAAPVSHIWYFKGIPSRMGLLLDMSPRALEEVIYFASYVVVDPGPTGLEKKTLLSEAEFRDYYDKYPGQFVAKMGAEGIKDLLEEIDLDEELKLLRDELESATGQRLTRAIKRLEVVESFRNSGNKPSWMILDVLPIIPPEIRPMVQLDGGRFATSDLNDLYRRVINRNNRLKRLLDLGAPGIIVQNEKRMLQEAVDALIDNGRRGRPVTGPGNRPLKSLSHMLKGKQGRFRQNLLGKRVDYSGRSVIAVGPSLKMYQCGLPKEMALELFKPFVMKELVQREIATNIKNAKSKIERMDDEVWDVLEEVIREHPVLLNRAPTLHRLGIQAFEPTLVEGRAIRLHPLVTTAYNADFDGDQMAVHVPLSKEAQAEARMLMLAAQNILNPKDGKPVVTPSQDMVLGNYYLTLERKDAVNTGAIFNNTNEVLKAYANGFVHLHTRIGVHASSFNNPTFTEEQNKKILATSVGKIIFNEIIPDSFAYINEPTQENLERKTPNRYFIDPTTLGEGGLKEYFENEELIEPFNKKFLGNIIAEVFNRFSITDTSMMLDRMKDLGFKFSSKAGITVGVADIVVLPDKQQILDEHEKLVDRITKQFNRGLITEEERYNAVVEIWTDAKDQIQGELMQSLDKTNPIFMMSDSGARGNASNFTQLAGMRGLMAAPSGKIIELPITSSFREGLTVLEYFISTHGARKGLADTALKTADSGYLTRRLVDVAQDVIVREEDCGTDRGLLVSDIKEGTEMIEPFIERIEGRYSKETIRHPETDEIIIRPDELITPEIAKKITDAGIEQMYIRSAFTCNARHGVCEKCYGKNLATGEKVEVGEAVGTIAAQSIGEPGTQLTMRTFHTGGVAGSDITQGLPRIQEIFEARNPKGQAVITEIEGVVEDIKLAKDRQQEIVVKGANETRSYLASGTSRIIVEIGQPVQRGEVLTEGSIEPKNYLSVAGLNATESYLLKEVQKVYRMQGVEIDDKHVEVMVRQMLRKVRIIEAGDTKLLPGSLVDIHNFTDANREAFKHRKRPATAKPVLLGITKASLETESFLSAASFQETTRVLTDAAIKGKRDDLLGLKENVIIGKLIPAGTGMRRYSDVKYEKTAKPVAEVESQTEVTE
Chain of S. aureus RNA polymerase core enzyme + S. aureus σA (Q2FW32 whole entry, further chain): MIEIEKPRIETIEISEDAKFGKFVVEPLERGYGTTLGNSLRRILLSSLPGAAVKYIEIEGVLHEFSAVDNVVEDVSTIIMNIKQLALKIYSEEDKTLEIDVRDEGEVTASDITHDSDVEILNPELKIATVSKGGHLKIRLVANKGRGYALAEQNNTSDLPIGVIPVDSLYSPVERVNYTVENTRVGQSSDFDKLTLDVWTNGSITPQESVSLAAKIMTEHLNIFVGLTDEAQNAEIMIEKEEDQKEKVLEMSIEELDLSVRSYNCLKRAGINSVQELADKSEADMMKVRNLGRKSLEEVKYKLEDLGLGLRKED

Row | Compound | pIC50 [1] | pIC50 [2] | MIC50 (H. influenzae 49247; Haemophilus influenzae, 49247, read-out: MIC50 H. influenzae 49247) [µg/mL] | MIC [3] [µg/mL] | MIC [4] [µg/mL] | pIC50 [5] | MIC [6] [µg/mL] | MIC [7] [µg/mL] | MIC [8] [µg/mL] | MIC (Burkholderia mallei CHN7) [µg/mL] | MIC [9] [µg/mL] | MIC [10] [µg/mL] | MIC [11] [µg/mL] | MIC (H. influenzae 49247) [µg/mL]
1 | O=C(CCc1ccccc1Cl)c1c(O)cc(O)cc1O [0MTK11, 3-(2-chlorophenyl)propanoyl-phloroglucinol] | 5.46 | 4.96 | 35 (≈ 120 µM) | 16 (≈ 54.7 µM) | 6.25 (≈ 21.4 µM) | 5.60 | > 50 | > 40 | 8 (≈ 27.3 µM) | 50 (≈ 171 µM) | > 40 | > 40 | 3.12 (≈ 10.7 µM) | –
2 | O=C(CCc1cccc(Cl)c1)c1c(O)cc(O)cc1O [0MTK12, 3-(3-chlorophenyl)propanoyl-phloroglucinol] | 5.59 | 5.05 | – | 16 (≈ 54.7 µM) | 12.5 (≈ 42.7 µM) | 5.32 | 50 (≈ 171 µM) | > 40 | 6 (≈ 20.5 µM) | 50 (≈ 171 µM) | 32 (≈ 109 µM) | > 40 | 3.12 (≈ 10.7 µM) | > 40
3 | O=C(CCc1ccc(Cl)cc1)c1c(O)cc(O)cc1O [0MTK13, 3-(4-chlorophenyl)propanoyl-phloroglucinol] | 5.96 | 5.37 | – | 4 (≈ 13.7 µM) | 6.25 (≈ 21.4 µM) | 5.64 | 25 (≈ 85.4 µM) | 32 (≈ 109 µM) | 2.7 (≈ 9.22 µM) | 12.5 (≈ 42.7 µM) | 11 (≈ 37.6 µM) | 32 (≈ 109 µM) | 3.12 (≈ 10.7 µM) | 32 (≈ 109 µM)
4 | CCc1ccc(CCC(=O)c2c(O)cc(O)cc2O)cc1 [0MTK26, 3-(4-ethylphenyl)propanoyl-phloroglucinol] | 5.82 | 5.27 | – | 12.5 (≈ 43.7 µM) | – | 5.44 | – | – | 6.2 (≈ 21.7 µM) | – | 36 (≈ 126 µM) | – | – | –
5 | CC(C)c1ccc(CCC(=O)c2c(O)cc(O)cc2O)cc1 [0MTK27, 3-(4-isopropylphenyl)propanoyl-phloroglucinol] | 5.64 | 5.27 | – | 9.8 (≈ 32.6 µM) | – | 5.31 | – | – | 4.3 (≈ 14.3 µM) | – | 16 (≈ 53.3 µM) | – | – | –
6 | CC(C)(C)c1ccc(CCC(=O)c2c(O)cc(O)cc2O)cc1 [0MTK28, 3-((4-tert-butyl)phenyl)propanoyl-phloroglucinol] | 5.57 | 5.19 | – | 6.9 (≈ 21.9 µM) | – | 5.34 | – | – | 3 (≈ 9.54 µM) | – | 11 (≈ 35 µM) | – | – | –
7 | Cc1cc(F)ccc1CCC(=O)c1c(O)cc(O)cc1O [0MTK30, 3-(4-fluoro-2-methylphenyl)propanoyl-phloroglucinol] | 5.74 | 5.39 | – | 16 (≈ 55.1 µM) | – | 5.43 | – | – | 7 (≈ 24.1 µM) | – | 26 (≈ 89.6 µM) | – | – | –
8 | O=C(CCc1ccccc1C(F)(F)F)c1c(O)cc(O)cc1O [0MTK31, 3-(2-(trifluoromethyl)phenyl)propanoyl-phloroglucinol] | 5.72 | 5.32 | – | 14 (≈ 42.9 µM) | – | 5.46 | – | – | 6 (≈ 18.4 µM) | – | 22 (≈ 67.4 µM) | – | – | –
9 | O=C(CCc1ccc(C(F)(F)F)cc1C(F)(F)F)c1c(O)cc(O)cc1O [0MTK32, 3-(2,4-bis(trifluoromethyl)phenyl)propanoyl-phloroglucinol] | 5.70 | 5.43 | – | 3.6 (≈ 9.13 µM) | – | 5.48 | – | – | 2.2 (≈ 5.58 µM) | – | 6.6 (≈ 16.7 µM) | – | – | –
10 | COc1ccccc1CCC(=O)c1c(O)cc(O)cc1O [OMTK14, 3-(2-methoxyphenyl)propanoyl-phloroglucinol] | 5.57 | 5.14 | – | > 40 | 25 (≈ 86.7 µM) | 5.00 | > 50 | > 40 | 12 (≈ 41.6 µM) | > 50 | > 40 | > 40 | 12.5 (≈ 43.4 µM) | > 40
11 | COc1cccc(CCC(=O)c2c(O)cc(O)cc2O)c1 [OMTK15, 3-(3-methoxyphenyl)propanoyl-phloroglucinol] | 5.52 | 5.14 | – | > 40 | 25 (≈ 86.7 µM) | 5.52 | 50 (≈ 173 µM) | > 40 | 12 (≈ 41.6 µM) | > 50 | > 40 | > 40 | 12.5 (≈ 43.4 µM) | > 40
12 | Cc1ccccc1CCC(=O)c1c(O)cc(O)cc1O [OMTK18, 3-(2-methylphenyl)propanoyl-phloroglucinol] | 5.57 | 5.10 | – | > 40 | – | 5.41 | – | – | 11 (≈ 40.4 µM) | – | > 40 | – | – | –
13 | O=C(CCc1ccc(F)cc1)c1c(O)cc(O)cc1O [OMTK21, 3-(4-fluorophenyl)propanoyl-phloroglucinol] | 5.62 | 5.14 | – | > 40 | – | 5.36 | – | – | 10 (≈ 36.2 µM) | – | > 40 | – | – | –
14 | O=C(CCc1ccc(Br)cc1)c1c(O)cc(O)cc1O [OMTK22, 3-(4-bromophenyl)propanoyl-phloroglucinol] | 5.89 | 5.43 | – | 10 (≈ 29.7 µM) | – | 5.77 | – | – | 5 (≈ 14.8 µM) | – | 22 (≈ 65.2 µM) | – | – | –
15 | O=C(CCc1ccc(C(F)(F)F)cc1)c1c(O)cc(O)cc1O [OMTK23, 3-(4-trifluoromethylphenyl)propanoyl-phloroglucinol] | 5.80 | 5.32 | – | 12 (≈ 36.8 µM) | – | 5.64 | – | – | 5 (≈ 15.3 µM) | – | 25 (≈ 76.6 µM) | – | – | –
